The nature of assay [1]: ABTS cation radical decolorization assay. The note with it: mean ± SD, n = 6.
Assay [2] can be described thus: Ferric reducing antioxidant power (FRAP) assay. The note with it: mean ± SD, n = 6. The method, then: Natural products’ ability to reduce metals is regarded as a key marker of their antioxidant properties. Spectroscopically, the quantity of ferric (Fe^3+) complex conversion to ferrous (Fe^2+) form is detected by the color change of the solution based on the compound’s ability for reduction. The increased reduction capability of the studied sample is shown by the higher absorbance of the reaction mixture. FRAP values of B. armeniaca extract and its fractions were recorded in (Table 2) and expressed as EC50 (µg/mL).
The FRAP technique was carried out in microplates with slight modifications as described by. Briefly, a fresh FRAP solution was prepared shortly before the reaction in a 10:1:1 v/v/v ratio, consisting of acetate buffer (300 mM, PH = 3.6), tripyridyltriazine (TPTZ, 10 mM) in HCl (40 mM), and FeCl3 (20 mM), respectively. […] The FRAP test measured the absorbance change generated by electron-donating antioxidants converting a colorless oxidized Fe^+3-TPTZ complex to a blue-colored Fe^+2 molecule in acidic conditions. Data are represented as mean ± SD.
FRAP assay data were determined by Microsoft Excel®. […] AChE inhibition activity was performed in triplicate. […] The difference was considered significant when p < 0.05.

A short description of assay [3]: DPPH radical scavenging assay. The settings on record: mean ± SD, n = 6.
On the set-up of assay [4]: method as in earlier work. The note with it: previous research ref 5; cited from earlier work.
The test system of the next assay is CYP2E1. Briefly: Brain content of CYP2E1 (ELISA) in LPS-induced Alzheimer in mice. The assay is classed as in vivo. The settings on record: LPS 250 µg/kg/day IP 7 days; compared to normal control. The method, then:
(§1) Firstly, mice were anesthetized using an IP injection of ketamine at a dose of 80–100 mg/kg. After they achieved a deep anesthetic state, mice were sacrificed by decapitation. Each mouse’s brain was promptly dissected and washed with phosphate-buffered saline (PBS) to eliminate extra blood. Weighed pieces were homogenized in PBS with the MPW-120 homogenizer, Med Instruments, Poland, to obtain a 20% homogenate, then they were kept overnight at −20 °C. […] The supernatant was removed immediately and assayed for brain contents of NF-κB, IL-1β, CYP2E1, and GFAP. They were determined using an ELISA kit (SunLong Biotec Co., Ltd., Hangzhou, China).
(§2) Standards and samples were added to wells containing immobilized antibodies specific for […] NF-κB, IL-1β, CYP2E1, and GFAP and kept for 30 min of incubation at 37 °C. After washing, horseradish peroxidase-conjugated streptavidin was added to the wells, kept for 30 min of incubation at 37 °C, and then washed for a second time. The wells were filled with tetramethylbenzidine (TMB) substrate solution and kept for 15 min of incubation at 37 °C; a color was produced in proportion to the quantity of NF-κB, IL-1β, CYP2E1, and GFAP bound. A stop solution was added to the wells to terminate the color development, and color intensity was detected at 450 nm after 10 min [130].

A further assay has as its system NF-κB. Briefly: Brain content of NF-κB (ELISA) in LPS-induced Alzheimer in mice. The format is in vivo. The settings on record: LPS 250 µg/kg/day IP 7 days; compared to normal control. The procedure:
as §1, §2

Assay [5] relates to LPS-induced Alzheimer in mice. Description: Y maze spontaneous alternation test in LPS-induced Alzheimer in mice. The format is in vivo. The settings on record: LPS 250 µg/kg/day IP 7 days; compared to normal control. The procedure:
Fifty male Swiss mice weighing 20–35 gm were chosen for the investigation. They were held in filter-top plastic cages under hygienic conditions, with 12-h light and 12-hour dark cycles and 50% humidity at 28 °C. Unnecessary disturbance of animals was avoided. Squeezing, pressure, and abrasive maneuvers were avoided when dealing with the animals. Throughout the experiment, mice were fed a standard pellet meal, and water was allowed ad libitum. The laboratory animal experiments were conducted to comply with the recommendations of the Guide for the Care and Use of Laboratory Animals of the National Research Centre, Egypt, and the National Institutes of Health (NIH No. 85:23 revised 1985) in accordance with the guidelines provided by the CPCSEA and the World Medical Association Declaration of Helsinki on Ethical Principles for Studies Involving Experimental Animals. […]
Y maze spontaneous alternation test was performed 24 h after the last treatment dose, according to [126]. […] One day later, the mouse was allowed eight minutes of movements while its motion was recorded. The letter of the mouse was recorded down every time it entered an arm with all of its limbs inside. […] The alternation percentage was determined using the formula below: Number of alternations/(Total arm entries −2) ∗ 100

The next assay relates to GFAP. Briefly: Brain content of GFAP (ELISA) in LPS-induced Alzheimer in mice. The format is in vivo. The settings on record: LPS 250 µg/kg/day IP 7 days; compared to normal control. The method, then: as §1, §2
Another assay relates to mice brain. Description: Histopathological examination of mice brain (H&E). The note with it: LPS model, extracts 200 mg/kg/day oral 7 days. The assay is classed as in vivo. The method, then:
Autopsy specimens were obtained from mice brains, divided into several groups and preserved in 10% formol saline for a day. Subsequently, rinsing with tap water, dehydration was achieved by alcohol serial dilutions (methyl, ethyl, and absolute ethyl alcohol). Samples were cleaned with xylene and immersed in paraffin for a day at 56 °C in a hot air oven. Paraffin beeswax tissue blocks were made using a sledge microtome and sectioned at a thickness of […].

In the next assay the test system is IL-1β. Briefly: Brain content of IL-1β (ELISA) in LPS-induced Alzheimer in mice. The assay is classed as in vivo. The settings on record: LPS 250 µg/kg/day IP 7 days; compared to normal control. The procedure: as §1, §2

With `Cc1c(C)c2c(c(C)c1O)CCC(C)(C(=O)O)O2` (centres unmarked) [Trolox], the “ABTS Assay IC50” value in assay [1] worked out at 22.56 ± 0.78 µg/mL. Also, in assay [2], the “FRAP Assay EC50” value came out at 96.97 ± 2.73 µg/mL. Moreover, in assay [3], the “DPPH Assay IC50” value came out at 24.42 ± 0.87 µg/mL.

As to `O=C(O)c1cc(O)c(O)c(O)c1` [gallic acid], in assay [4], the “DPPH IC50” value was 3.6 µg/mL.

Consider Lipopolysaccharide [LPS], for which the “elevation of CYP2E1 brain content” value in the assay on CYP2E1 is reported as 235%. Besides, in the assay on NF-κB, the “increase of NF-κB in the brain” value was determined as 309%. For the same compound, in assay [5], the “decrease of Y-maze alteration” value is reported as 58%. In addition, the “elevation of GFAP brain expression” value with GFAP is reported as 276%. Moreover, in the assay with mice brain, the histopathology of cerebellum result is “normal histological findings”; the “histopathology of cerebral cortex” value is “nuclear pyknosis and neuronal degeneration with focal gliosis”; the “histopathology of fascia dentata and hilus in the hippocampus” value is “nuclear pyknosis with degeneration”; the “histopathology of hippocampus subiculum” value was “nuclear pyknosis and degeneration in some neurons”. For the same compound, in the assay with mice brain, the histopathology of striatum entry is given as “multiple focal eosinophilic plagues formation”. For the same compound, the “increase of IL-1β in the brain” value in the assay on IL-1β is listed as 193%.

The values above are taken from publication PMC9322164, “Novel Neuroprotective Potential of Bunchosia armeniaca (Cav.) DC against Lipopolysaccharide Induced Alzheimer’s Disease in Mice” (Plants, 2022).
